For five molecules, IC50, Kd and logP results are on record in ChEMBL document CHEMBL5512618, “MYC the oncogene from hell: Novel opportunities for cancer therapy” (Eur J Med Chem, 2024).

The subject of data set [1] is Burkitts lymphoma cell. Kind of data set: Inhibition of cell growth in human Burkitts lymphoma cells. The class given is functional, cell-based.
The target of data set [2] is Myc proto-oncogene protein (Homo sapiens, UniProt P01106). Briefly: Binding affinity to CM5 sensor chip immobilized MYC bHLHZip domain (unknown origin) assessed as dissociation constant by SPR analysis.
In data set [3] the target is c-Myc/Max (Homo sapiens, UniProt P01106+P61244). Briefly: Inhibition of His6-tagged Max (151 residues)(unknown origin) expressed in bacterial system/recombinant MYC ) (unknown origin) expressed in bacterial system by EMSA. For orientation: In EMSA bound probe runs differently from free probe, usually more slowly.
Data set [4] concerns HL-60. Kind of data set: Inhibition of cell development in human HL-60 cells. The class given is functional, cell-based.
Data set [5] can be described thus: Lipophilicity, logP of compound. It is filed as physicochemical. The settings on record: octanol/water.

In general, IC50 refers to the concentration that inhibits the measured activity by half. Usually Kd stands for the concentration at which binding is half-saturated. Turning to `COc1ccc2nc3cc(/N=N/c4ccc(N)nc4N)ccc3c(N)c2c1`, in data set [1], half-maximal inhibition (IC50) was put at 0.5 µM. Besides, the Kd in data set [2] was 1.6 µM.

`COC(=O)c1ccc(Nc2ccc([N+](=O)[O-])c3nonc23)c(-c2ccc(C)cc2)c1`: the IC50 in data set [3] is 34 µM.

On to `O=[N+]([O-])c1ccc(Nc2ccccc2-c2ccccc2)c2nonc12`, for which the IC50 in data set [4] stood at 7.2 µM.

In the case of `O=C(O)c1ccc(Nc2ccc([N+](=O)[O-])c3nonc23)cc1`, half-maximal inhibition in data set [4] (IC50) required 30 µM.

As usually defined, the logP is a log measure of how a compound divides between an organic and an aqueous phase. Read a high logP as a more lipophilic compound. For the molecule `Cn1nc(C(F)(F)F)cc1-c1ccc(OCc2ccc(Cl)cc2)c(-c2ccc(Cl)c(C(F)(F)F)c2)c1O`, the logP in data set [5] was 8.4.
